# Experimental data: patent US8846947B2, “Benzimidazoles and related analogs as sirtuin modulators” (GlaxoSmithKline LLC, priority 2008, dated 2014)
# Like-named read-outs stand apart in the source and are kept apart here.
# Target: T1, SIRT1 (Homo sapiens, UniProt Q96EB6)
# T1 sequence (Q96EB6 1-747): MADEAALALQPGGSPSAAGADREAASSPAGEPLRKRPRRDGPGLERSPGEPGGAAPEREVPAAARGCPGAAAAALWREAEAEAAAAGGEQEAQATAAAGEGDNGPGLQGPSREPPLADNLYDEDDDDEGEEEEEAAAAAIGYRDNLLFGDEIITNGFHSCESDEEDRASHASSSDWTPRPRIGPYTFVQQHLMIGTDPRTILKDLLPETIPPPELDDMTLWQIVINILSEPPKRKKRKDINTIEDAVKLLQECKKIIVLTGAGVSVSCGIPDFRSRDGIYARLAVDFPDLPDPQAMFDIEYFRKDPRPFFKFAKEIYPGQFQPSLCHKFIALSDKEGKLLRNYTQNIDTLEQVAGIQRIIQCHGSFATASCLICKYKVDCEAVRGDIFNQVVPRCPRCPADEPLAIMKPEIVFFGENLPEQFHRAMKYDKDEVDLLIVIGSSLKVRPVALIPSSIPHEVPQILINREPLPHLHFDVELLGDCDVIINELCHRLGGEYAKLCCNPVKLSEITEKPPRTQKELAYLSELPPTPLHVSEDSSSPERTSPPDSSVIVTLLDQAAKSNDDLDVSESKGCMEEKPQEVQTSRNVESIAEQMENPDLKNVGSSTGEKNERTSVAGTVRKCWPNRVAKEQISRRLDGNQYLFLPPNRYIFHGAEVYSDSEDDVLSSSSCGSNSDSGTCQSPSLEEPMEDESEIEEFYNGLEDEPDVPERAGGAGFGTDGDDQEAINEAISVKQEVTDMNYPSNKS
# Assay: Mass spectrometry based SIRT1 deacetylase activation assay (acetylated p53-derived peptide substrate)
# Assay type: biochemical
# [1] = 0.5 μM peptide substrate, 120 μM βNAD+, 10 nM SIRT1, 25 minutes at 25° C.
# [2] = 0.5 μM peptide substrate, 120 μM βNAD+, 10 nM SIRT1, 25 min at 25° C.
# [3] = 0.5 μM peptide substrate, 120 μM βNAD+, 10 nM SIRT1, 25 min at 25° C., read-out: EC1.5
SMILES,EC1.5 [1],Fold Act. (percent maximum fold activation) [1],Fold Act. (percent maximum fold activation) [2],EC1.5 [3] [nM],other results
O=C(NC1CCOC1=O)c1cccc2[nH]c(-c3ccc(Cl)cc3C(F)(F)F)nc12 (centres unmarked) [Compound 355],–,–,–,–,EC1.5: B (EC1.5 1-25 uM); Fold Act. (percent maximum fold activation): A (Fold activation >200%)
O=C(Nc1nccs1)c1cccc2[nH]c(-c3ccnc(N4CCNCC4)c3)nc12 [Compound 314],–,–,–,–,EC1.5: B (EC1.5 1-25 uM); Fold Act. (percent maximum fold activation): A (Fold activation >200%)
Cc1nc(C)c(-c2nc3c(C(=O)Nc4ccccn4)cccc3[nH]2)s1 [Compound 320],–,–,–,–,EC1.5: B (EC1.5 1-25 uM); Fold Act. (percent maximum fold activation): A (Fold activation >200%)
O=C(Nc1cccc(OC2CCNCC2)c1)c1cccc2[nH]c(-c3ccc(Cl)cc3C(F)(F)F)nc12 [Compound 598],A (EC1.5<1.0 uM),A (Fold activation >200%),–,–,–
Cc1nc(N2CCOCC2)sc1-c1nc2c(C(=O)Nc3nccs3)cccc2[nH]1 [Compound 411],–,–,A (Fold activation >200%),< 1000,–
O=C(Nc1ccc(CN2CCCC2)nc1)c1cccc2[nH]c(-c3cc(F)ccc3C(F)(F)F)nc12 [Compound 687],A (EC1.5<1.0 uM),A (Fold activation >200%),–,–,–
O=C(Nc1nccs1)c1cccc2[nH]c(-c3ccc4c(c3)OC(F)(F)O4)nc12 [Compound 221],–,–,–,–,EC1.5: C (EC1.5 >25 uM); Fold Act. (percent maximum fold activation): B (Fold Activation <200%)
"O=C(Nc1ccc(CN2CCNCC2)cn1)c1cccc2[nH]c(-c3ccccc3C(F)(F)F)nc12 [Compound 621, N-(5-(piperazin-1-ylmethyl)pyridin-2-yl)-2-(2-(trifluoromethyl)phenyl)-1H-benzo[d]imidazole-4-carboxamide]",A (EC1.5<1.0 uM),A (Fold activation >200%),–,–,–
Cc1nc(C)c(-c2nc3c(C(=O)Nc4ccc(OC[C@H](O)CO)cc4)cccc3[nH]2)s1 [Compound 798],A (EC1.5<1.0 uM),A (Fold activation >200%),–,–,–
O=C(Nc1ccccn1)c1cc(N2CCOCC2)cc2[nH]c(-c3cc(F)ccc3C(F)(F)F)nc12 [Compound 645],A (EC1.5<1.0 uM),A (Fold activation >200%),–,–,–
O=C(NCc1ccccn1)c1cccc2[nH]c(-c3cccc(N4CCOCC4)c3)nc12 [Compound 471],–,–,A (Fold activation >200%),1000 to 25000,–
CN1CCOc2cc(-c3nc4c(C(=O)Nc5cccnn5)cccc4[nH]3)cnc21 [Compound 457],–,–,A (Fold activation >200%),< 1000,–
Cc1cnc(NC(=O)c2cccc3[nH]c(-c4cc(F)ccc4C(F)F)nc23)s1 [Compound 512],–,–,A (Fold activation >200%),< 1000,–
O=C(Nc1ccc(CN2CCCC2)cn1)c1cccc2[nH]c(-c3ccccc3C(F)(F)F)nc12 [Compound 541],–,–,A (Fold activation >200%),< 1000,–
CCCN1CCCc2ccc(-c3nc4c(C(=O)Nc5ncc(C)s5)cccc4[nH]3)cc21 [Compound 602],B (EC1.5 1-25 uM),A (Fold activation >200%),–,–,–
Cc1cnc(NC(=O)c2cccc3nc(-c4ccc(N5CCCC5)cc4C(F)F)[nH]c23)s1 [Compound 765],A (EC1.5<1.0 uM),A (Fold activation >200%),–,–,–
O=C(Nc1nccs1)c1cccc2[nH]c(-c3ccnc(Cl)c3)nc12 [Compound 231],–,–,–,–,EC1.5: A (EC1.5<1.0 uM); Fold Act. (percent maximum fold activation): A (Fold activation >200%)
O=C(Nc1cccnc1)c1cccc2[nH]c(-c3cccc(C(F)(F)F)c3)nc12 [Compound 234],–,–,–,–,EC1.5: A (EC1.5<1.0 uM); Fold Act. (percent maximum fold activation): A (Fold activation >200%)
O=C(Nc1ccccn1)c1cccc2[nH]c(-c3ccc(F)cc3OCCN3CCOCC3)nc12 [Compound 504],–,–,B (Fold Activation <200%),1000 to 25000,–
O=C(Nc1cccnc1)c1cccc2[nH]c(-c3cccc(CN4CCOCC4)c3)nc12 [Compound 350],–,–,–,–,EC1.5: B (EC1.5 1-25 uM); Fold Act. (percent maximum fold activation): A (Fold activation >200%)
O=C(Nc1ccccn1)c1cccc2[nH]c(-c3ccc(N4CC[C@H](F)C4)cc3C(F)F)nc12 [Compound 733],A (EC1.5<1.0 uM),A (Fold activation >200%),–,–,–
Cc1cc(NC(=O)c2cccc3[nH]c(-c4cc(F)ccc4C(F)(F)F)nc23)no1 [Compound 455],–,–,A (Fold activation >200%),< 1000,–

SMILES,EC1.5 [1],Fold Act. (percent maximum fold activation) [1],Fold Act. (percent maximum fold activation) [2],EC1.5 [3] [nM],other results
O=C(Nc1cccnn1)c1cc(N2CCOCC2)cc2[nH]c(-c3cc(F)ccc3C(F)F)nc12 [Compound 770],A (EC1.5<1.0 uM),A (Fold activation >200%),–,–,–
CC1(C)CN(c2ccc(C(F)(F)F)c(-c3nc4c(C(=O)Nc5nccs5)cccc4[nH]3)c2)CCO1 [Compound 708],A (EC1.5<1.0 uM),A (Fold activation >200%),–,–,–
O=C(Nc1cccc(OC2CCNCC2)c1)c1cccc2[nH]c(-c3ccc(F)cc3C(F)(F)F)nc12 [Compound 661],A (EC1.5<1.0 uM),A (Fold activation >200%),–,–,–
O=C(Nc1cccc(OC[C@H](O)CO)c1)c1cccc2[nH]c(-c3ccccc3F)nc12 [Compound 784],A (EC1.5<1.0 uM),A (Fold activation >200%),–,–,–
O=C(Nc1nccs1)c1cccc2[nH]c(-c3nccs3)nc12 [Compound 238],–,–,–,–,EC1.5: B (EC1.5 1-25 uM); Fold Act. (percent maximum fold activation): B (Fold Activation <200%)
O=C(Nc1ccccn1)c1cncc2[nH]c(-c3ccc(F)cc3C(F)(F)F)nc12 [Compound 694],B (EC1.5 1-25 uM),B (Fold Activation <200%),–,–,–
O=C(Nc1nccs1)c1cccc2[nH]c(-c3cccc(OC4CCNCC4)c3)nc12 [Compound 426],–,–,A (Fold activation >200%),< 1000,–
O=C(Nc1cccnn1)c1cncc2[nH]c(-c3cc(F)ccc3C(F)(F)F)nc12 [Compound 656],A (EC1.5<1.0 uM),A (Fold activation >200%),–,–,–
Cc1cnc(NC(=O)c2cncc3[nH]c(-c4ccc(Cl)cc4C(F)(F)F)nc23)s1 [Compound 652],A (EC1.5<1.0 uM),A (Fold activation >200%),–,–,–
CC1(C)CN(c2ccc(-c3nc4c(C(=O)Nc5nccs5)cccc4[nH]3)c(C(F)(F)F)c2)CCO1 [Compound 706],A (EC1.5<1.0 uM),A (Fold activation >200%),–,–,–
Cc1cnc(NC(=O)c2cc(F)cc3nc(-c4ccc(F)cc4C(F)F)[nH]c23)s1 [Compound 825],A (EC1.5<1.0 uM),A (Fold activation >200%),–,–,–
O=C(Nc1nccs1)c1cc(F)cc2nc(-c3ccccc3C(F)F)[nH]c12 [Compound 832],A (EC1.5<1.0 uM),A (Fold activation >200%),–,–,–
O=C(Nc1cccc2[nH]c(-c3ccc(Cl)cc3C(F)(F)F)nc12)c1ccccn1 [Compound 417],–,–,A (Fold activation >200%),1000 to 25000,–
CN(C)CCNc1ccc(-c2nc3c(C(=O)Nc4nccs4)cccc3[nH]2)cn1 [Compound 259],–,–,–,–,EC1.5: B (EC1.5 1-25 uM); Fold Act. (percent maximum fold activation): A (Fold activation >200%)
Cc1cc(C)nc(NC(=O)c2cccc3[nH]c(-c4ccnn4-c4ccccc4)nc23)c1 [Compound 422],–,–,A (Fold activation >200%),< 1000,–
O=C(Nc1nccs1)c1cccc2[nH]c(-c3cc(F)ccc3OCCN3CCOCC3)nc12 [Compound 583],–,–,A (Fold activation >200%),1000 to 25000,–
O=C(Nc1ccccn1)c1cccc2[nH]c(-c3ccc(OC[C@@H](O)CO)cc3C(F)F)nc12 [Compound 596],–,–,A (Fold activation >200%),< 1000,–
O=C(Nc1nccs1)c1cccc2[nH]c(-c3ccc(OC[C@@H](O)CO)cc3C(F)F)nc12 [Compound 594],–,–,A (Fold activation >200%),< 1000,–
Cc1cnc(NC(=O)c2cccc3[nH]c(-c4cccc5c4OC(F)(F)O5)nc23)s1 [Compound 532],–,–,A (Fold activation >200%),< 1000,–
O=C(Nc1cccc(OC[C@@H](O)CO)c1)c1cccc2[nH]c(-c3cc(F)ccc3C(F)F)nc12 [Compound 720],A (EC1.5<1.0 uM),A (Fold activation >200%),–,–,–
O=C(Nc1ccncn1)c1cccc2[nH]c(-c3ccc(N4CCCC4)cc3C(F)F)nc12 [Compound 776],A (EC1.5<1.0 uM),A (Fold activation >200%),–,–,–
